Experimental data from patent US10722529B2, “Modulation of NAD+ metabolic pathways for treatment of disease” (Temple University—Of The Commonwealth System of Higher …, priority 2015, dated 2020).
Entries after “also recorded” stand apart in the source; their conditions may differ.

Legend:
CD4/CD8 ratio = CD4/CD8 ratio in NR dose escalation study in SIV infected macaques; format: in vivo, rhesus macaque; details: SIV infected animals; highest dose (400 mg/kg)
Description: (§1) As described herein, an increase in the kynurenine to tryptophan ratios in the SIV macaque model was identified, with a positive correlation with viral load and soluble CD163 in plasma. […] In an effort to modulate the kynurenine pathway, and decrease tryptophan metabolism, a dose escalation study was performed with the NAD salvage pathway precursor, nicotinamide riboside (NR), in SIV infected macaques. […] This monocyte subset has been implicated in the pathogenesis of HIV infection, HAND, as well as other HIV associated comorbidities. […] The regulation of the kynurenine pathway appears to be complex, yet an attractive target for HIV therapeutics. Understanding the mechanism by which HIV modulates the kynurenine pathway could provide new therapeutic targets for the treatment of HIV and HAND.

human monocytes = test: CD16 expression in human monocytes isolated from donor PBMCs in the presence of M-CSF; format: cell-based; details: M-CSF treatment, in vitro
Text: FIG. 12 depicts the flow cytometry gating strategy used to separate two CD16 positive monocyte subsets.
FIG. 14 depicts the mean fluorescent intensity for CD16 expression in human monocytes isolated from donor PBMCs in the presence of M-CSF treatment.

[1] = system: macrophage colony-stimulating factor (M-CSF); test: M-CSF in NR treated macaques; format: in vivo, rhesus macaque
Text: FIG. 11 depicts experimental results showing that macrophage colony-stimulating factor (M-CSF) is reduced in NR treated macaques.

[2] = system: kynurenine to tryptophan ratio; test: Plasma kynurenine to tryptophan ratio (KTR) in NR-treated rhesus macaques; format: in vivo, rhesus macaque
Description: FIG. 8A depicts the KTR in SIV infected animals treated with different concentrations of NR. FIG. 8B depicts the KTR in uninfected animals treated with different concentrations of NR.
as §1
Experiments were then conducted to examine if kynurenine to tryptophan ratios of SIV infected macaques correlate with sCD163 plasma level, ATP plasma level, and viral load. ELISA kits were used according to the manufacturer's directions to determine plasma concentrations of sCD163, kynurenine and tryptophan. Plasma ATP levels were analyzed using ATPLite assay. It was determined that kynurenine to tryptophan ratios increased in relations to higher viral loads (r=0.4774; p=0.0028) (FIG. 5A). Further, a positive correlation between kynurenine to tryptophan ratio and sCD163 plasma concentration was observed (r=0.473; p=0.0027) (FIG. 5B).

SIV = test: Viral load in SIV infected macaques treated with NR (latency reversal); format: in vivo, rhesus macaque
Text: Four SIV infected macaques were followed over time during chronic infection, two treated with combination anti-retroviral therapy (cART), and two non-treated.

CD14+/CD16+ monocytes = test: Flow cytometry of CD14/CD16 on PBMC monocytes of NR-treated rhesus macaques; format: in vivo, rhesus macaque; details: for CD16 expression on CD14+ monocytes (FACS dot plots): five seronegative and four seropositive macaques, before vs after NR
Description: (§2) PBMC from five seronegative and four seropositive rhesus macaques were analyzed after treatment with increasing concentrations of nicotinamide riboside (NR) over a 5-week period.
PBMC from five seronegative and four seropositive rhesus macaques were stained with antibodies to CD14 and CD16 and analyzed by flow cytometry after treatment with increasing concentrations of NR over a 5-week period. The mean fluorescence intensity (MFI) and percent frequency (% Freq) of CD16 was determined for each animal. […] One-way ANOVA was performed *P≤0.05; **P≤0.01; ***P≤0.001; n=9.
as §2, with “Experiments were then conducted to examine whether nicotinamide riboside treatment effects CD16 expression on CD14+ monocytes. PBMC” for “PBMC”
Experiments were then conducted to examine the effects of NR treatment on CD14 and CD16 expression. PBMC from five seronegative and four seropositive rhesus macaques were stained with antibodies to CD14 and CD16 and analyzed by flow cytometry after treatment with increasing concentrations of NR over a 5-week period. The mean fluorescence intensity (MFI) and percent frequency (% Freq) of CD16 was determined for each animal.

NAD+ = NAD+ concentration in PBMC of rhesus macaques treated with increasing NR over 5 weeks; format: in vivo, rhesus macaque; details: SIV infected rhesus macaques, increasing concentrations of NR over a 5 week period
Description: Peripheral blood mononuclear cells (PBMC) from five seronegative and four seropositive rhesus macaques were lysed and assayed for NAD+ concentration after treatment with increasing concentrations of nicotinamide riboside (NR) over a 5 week period. […] Paired T test and one way ANOVA was performed *P≤0.05; **P≤0.01 n=9.
Experiments were then conducted to examine the effect of nicotinamide riboside treatment on NAD+ levels in SIV infected animals. Peripheral blood mononuclear cells (PBMC) from five seronegative and four seropositive rhesus macaques were lysed and assayed for NAD+ concentration after treatment with increasing concentrations of nicotinamide riboside (NR) over a 5 week period.

plasma tryptophan = details: HIV infected subjects, supplementation; cited from earlier work
HIV = details: in vitro and in patients; cited from earlier work
HIV/AIDS = details: prior to the advent of cART; cited from earlier work
[3] = system: adipose tissue macrophage infiltration; details: mice; cited from earlier work
intracellular NAD+ = details: at micromolar concentrations; cited from earlier work
CD38 = CD38 (Homo sapiens, UniProt P28907); details: at micromolar concentrations; cited from earlier work
IDO = details: cited from earlier work
[4] = listed as nicotinamide riboside
[5] = uninfected and SIV infected macaques, before vs after NR over 5 weeks

Sequence of CD38 (P28907 whole entry, species assumed): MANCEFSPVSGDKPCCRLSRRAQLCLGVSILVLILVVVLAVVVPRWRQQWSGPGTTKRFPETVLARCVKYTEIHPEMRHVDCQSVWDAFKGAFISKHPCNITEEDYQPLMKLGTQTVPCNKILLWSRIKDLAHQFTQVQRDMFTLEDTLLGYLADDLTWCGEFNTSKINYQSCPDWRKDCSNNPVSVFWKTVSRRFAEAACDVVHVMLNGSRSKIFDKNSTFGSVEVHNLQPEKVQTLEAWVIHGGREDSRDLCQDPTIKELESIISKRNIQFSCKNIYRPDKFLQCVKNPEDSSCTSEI

NC(=O)c1ccc[n+]([C@@H]2O[C@H](CO)[C@@H](O)[C@H]2O)c1 [NR, nicotinamide riboside]
CD4/CD8 ratio (CD4/CD8 ratio): decrease CD4/CD8 ratio | CD16 monocyte subset expression (human monocytes): inhibits CD16 monocyte expression induced by M-CSF; also recorded: reduces CD16 monocyte subset expression | M-CSF level [1]: reduces M-CSF; also recorded: reduced | kynurenine to tryptophan ratio ([2]; SIV infected animals, 100 mg/kg dose): appeared to increase | kynurenine to tryptophan ratio (KTR) ([2]; SIV infected animals, different concentrations of NR): decreased; also recorded: decreases KTR | kynurenine to tryptophan ratio (KTR) ([2]; uninfected (seronegative) animals, relative to pretreatment values): no significant impact | function as latency reversing agent for SIV infection (SIV; SIV infected rhesus macaques): potential for NR to function as a latency reversing agent; also recorded: may function as a latency reversing agent | viral load (SIV; four SIV infected macaques, chronic infection, two on cART, two non-treated, all treated with NR): evidence for viral load increase in all animals | viral load over time (SIV; the animal on cART with the lowest viral load): increase in viral load and then decrease over time | CD16 expression on CD14+ monocytes (FACS dot plots) (CD14+/CD16+ monocytes): decreased in all animals examined | CD16 expression on CD14+ monocytes (FACS dot plots) (CD14+/CD16+ monocytes; [4]): significantly decreases | mean fluorescence intensity (MFI) of CD16 on CD14+/CD16+ monocytes (CD14+/CD16+ monocytes; [5]): significantly reduced; also recorded: significantly higher than after treatment; also recorded: significantly decreases | percent frequency of CD14+/CD16+ monocytes (% Freq of CD16) (CD14+/CD16+ monocytes; [5]): significantly reduced; also recorded: significantly decreases | NAD+ concentration in PBMC (NAD+): significantly increased | NAD+ concentration in PBMC (NAD+; [4]): increases NAD+ levels

NC(=O)c1cccnc1 [nicotinamide]
plasma tryptophan levels (plasma tryptophan): increases plasma tryptophan levels

O=C(CCCCCCC(=O)Nc1ccccc1)NO [vorinostat]
latency reversal on repeated dosages (HIV): diminishing returns over time

O=C(O)c1cccnc1 [niacin]
delay of progression of HIV/AIDS (HIV/AIDS): some benefit in delaying the progression of HIV/AIDS

O=c1c(O)c(-c2ccc(O)c(O)c2)oc2cc(O)cc(O)c12 [quercetin]
SIRT-1 activity [3]: increased SIRT-1 activity | inflammatory cytokine levels in tissue and sera (TNFα, MCP-1, IL-6) [3]: reduced inflammatory cytokine levels | obesity associated adipose tissue macrophage infiltration [3]: reduce obesity associated adipose tissue macrophage infiltration | intracellular NAD+ (intracellular NAD+): increase intracellular NAD+ | inhibition of CD38 enzyme activity (CD38): inhibit CD38 enzyme activity

O=c1cc(-c2ccc(O)cc2)oc2cc(O)cc(O)c12 [apigenin]
intracellular NAD+ (intracellular NAD+): increase intracellular NAD+ | inhibition of CD38 enzyme activity (CD38): inhibit CD38 enzyme activity

Cn1cc(C[C@H](N)C(=O)O)c2ccccc21 [1-methyl tryptophan]
effect on tryptophan depletion or alterations in the kynurenine pathway (IDO; SIV/rhesus macaque model, IDO blockade): incapable of affecting | disturbance in K/T over-time (IDO; infected animals vs controls): increased the disturbance in K/T over-time in infected animals but not in controls
